Data as given in PubChem BioAssay AID743394 (Broad Institute, 2014).
Activity calls are given as the source filed them.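 Rule for the calls: active = 40% activation versus positive control reached by fitted dose-response curve at or below highest valid tested dose; inconclusive = poor fit quality, or flat fit with activation between 30% and 70%; inactive = the rest.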

Assay: Xi-linked GFP reactivating small molecules – imaging, 68-5-11 mouse fibroblasts, cherry-pick, dose response (AID 743394);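 note: sensitizer 5-aza-dC present in the wells at 0.5 mM final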
Conditions: 68-5-11 mouse fibroblast XiGFP reporter, % GFP-positive imaging, 3 d; at 19.5 µM (top of the series)

SMILES	activation
C=CCn1c(O)c(C(C)=NCc2ccc3c(c2)OCO3)c(=O)[nH]c1=O	0.026% (inactive)

Same assay, conditions: 68-5-11 mouse fibroblast XiGFP reporter, % GFP-positive imaging, 3 d; at 19.5 µM (top of the series); cells co-treated with 5-aza-dC sensitizer; scaled: neutral wells 0, ellipticine wells 100

SMILES	activation
Cc1cc2c(NC(=O)Nc3ccc(C(C)(C)C)cc3)cccc2nn1	0.068% (inactive)
C[C@@H]1CCCCO[C@H](CN(C)Cc2ccc3c(c2)OCO3)[C@@H](C)CN([C@H](C)CO)C(=O)c2cc(NS(=O)(=O)c3ccc(F)cc3)ccc2O1	0.107% (inactive)
Cn1c(=O)c(C#N)c(-c2ccc(F)cc2)c2cc(C(=O)c3cc(Cl)cc(Cl)c3O)cnc21	-0.044% (inactive)
CC(=O)c1ccc(NS(=O)(=O)c2ccc(N/C=C/C(=O)c3ccc(F)cc3)cc2)cc1	0.351% (inactive)
C[C@H](NC(=O)C[C@H]1CC[C@@H](NC(=O)Cc2ccccn2)[C@@H](CO)O1)c1ccccc1	0.043% (inactive)
CCOC(=O)C1=C(C)NC(=S)NC1/C=C/c1ccccc1 (configuration not stated)	-0.024% (inactive)
COc1ccccc1-c1cc(C(=O)N2CCCc3ccccc32)no1	0.179% (inactive)
Cc1ccsc1/C=N/n1c(-c2cc(-c3ccccc3)n[nH]2)n[nH]c1=S	0.001% (inactive)
COc1ccc(OC)c(/C=C/c2ccc3cccc(O)c3n2)c1	-0.024% (inactive)
Cc1ccc2[nH]c(C(=O)O)c(NC(=O)[C@@H]3C[C@@H]3c3ccccc3)c2c1	-0.035% (inactive)
CCOC(=O)c1ccc(NC(=O)C2(N3C(=O)c4ccccc4C3=O)CCCC2)cc1	0.082% (inactive)
Nc1c(C(=O)O)cnn1-c1ccc([N+](=O)[O-])cc1	0.022% (inactive)
COc1cccc2cc(C(=O)N(Cc3cccs3)CC3CCCO3)c(=O)oc12 (configuration not stated)	-0.044% (inactive)
Cc1cccc(CS(=O)(=O)Cc2ccc(C(=O)NCc3cccs3)o2)c1	0% (inactive)
Nc1ccc(-c2nc3ccccc3[nH]2)cc1	-0.039% (inactive)
C/C=C/c1ccc(C2[C@H]3CNC[C@@H]2N3Cc2cc(-c3ccccc3)on2)cc1 (some centres not stated)	-0.031% (inactive)
COC(=O)c1cc(C(=O)N2CCN(c3ccccc3OC)CC2)cc([N+](=O)[O-])c1	0.681% (inactive)
Cc1ccccc1NC(=O)CN1C(=O)S/C(=C\c2ccc(-c3cc(C(=O)O)ccc3C)o2)C1=O	0.024% (inactive)
Cc1ccc(NC(=O)c2ccc(=O)[nH]c2)cc1S(=O)(=O)N1CCCCCC1	0.105% (inactive)
CN(C)/C=C1\C=C2C(=O)c3ccccc3N2C1=O	4.14% (inactive)
C[C@@H]1CCCCO[C@@H](CN(C)C(=O)Nc2ccc(C(F)(F)F)cc2)[C@@H](C)CN([C@H](C)CO)C(=O)c2cc(NS(=O)(=O)c3ccc(F)cc3)ccc2O1	-0.031% (inactive)
O=C(NC1=NN(c2ccccc2)CC1)Nc1ccccc1F	-0.003% (inactive)

SMILES	activation
CC(=O)c1c(COC(=O)c2ccccc2Cl)nc2ccccc2[n+]1[O-]	0.188% (inactive)
Oc1cc2c(c(Cl)c1O)CCNCC2c1ccccc1 (configuration not stated)	-0.008% (inactive)
N#CC(C#N)=C1C=CC=CN1/C(=C\c1ccco1)C(=O)c1ccc(Br)cc1	8.49% (inactive)
O=C(N/N=C/c1ccc([N+](=O)[O-])o1)c1cc2ccccc2o1	4.43% (inactive)
Cc1ccc(Cl)cc1NC(=O)CCC(=O)O	-0.002% (inactive)
COc1ccc2c3c(n(C)c2c1)[C@@H](CO)N(C(=O)NC(C)C)CC31CN(C(C)=O)C1	0.015% (inactive)
O=C(c1ccc(S(=O)(=O)c2ccc(Cl)cc2)cc1)N1CCOCC1	0.117% (inactive)
COc1ccccc1N1CCN(C(=O)CN2C(=O)c3cccc4cccc(c34)C2=O)CC1	0.077% (inactive)
CC1=NN(c2ccc(C)c(C)c2)C(=O)/C1=C\C=C\c1ccc([N+](=O)[O-])o1	-0.033% (inactive)
O=C(COC(=O)c1cc(=O)[nH]c(=O)[nH]1)Nc1cccc(S(=O)(=O)N2CCCCC2)c1	0.052% (inactive)
O=CNc1ccc2c(c1)Cc1cc([N+](=O)[O-])ccc1-2	0.191% (inactive)
CC(=O)N[C@@H](CC(=O)O)C(=O)O	-0.053% (inactive)
Cc1c(Nc2cc(Cl)c3nonc3c2[N+](=O)[O-])c(=O)n(-c2ccccc2)n1C	-0.121% (inactive)
Cc1ccc(S(=O)(=O)N2CCOCC2)cc1C(=O)OCC(=O)NC1CCS(=O)(=O)C1 (configuration not stated)	-0.034% (inactive)
CCc1ccc(N2CC(C(=O)Nc3cc(C)on3)CC2=O)cc1 (configuration not stated)	-0.034% (inactive)
CN1c2ccc(-c3ccc(C#N)cc3)cc2[C@@H]2[C@@H](CCN2C(=O)NC2CCCCC2)[C@H]1CO	0.002% (inactive)
C=C(C)c1cccc(C(C)(C)NC(=O)Nc2nnc(C(C)C)s2)c1	-0.035% (inactive)
CCOC(=O)c1nn(-c2ccc3ccccc3c2)cc1O	0.359% (inactive)
NNC(=O)c1sc(-c2ccccc2)cc1N	0.249% (inactive)
C[C@H](CO)N1C[C@H](C)[C@H](CN(C)Cc2ccccc2)Oc2ccc(NS(C)(=O)=O)cc2C1=O	-0.035% (inactive)
O=C(CCl)N=c1sccn1Cc1cccc2ccccc12	-0.053% (inactive)
C[C@@H]1CN(C)C(=O)Cc2cc(N(C)C)ccc2O[C@@H]1CN(C)S(C)(=O)=O	0.115% (inactive)

SMILES	activation
Cc1onc(-c2c(Cl)cccc2Cl)c1-c1nc2cc(Cl)ccc2c(=O)o1	-0.032% (inactive)
COc1ccccc1C(=O)Nc1nnc(S(=O)(=O)N2CCCCCC2)s1	0.014% (inactive)
Cc1ccc(NC(=O)c2cc(N3C(=O)C=CC3=O)ccc2N2CCOCC2)cc1Cl	-0.024% (inactive)
Cc1nnc(SCc2cc(=O)oc3ccc4ccccc4c23)n1Cc1ccccc1	-0.027% (inactive)
NC(=O)c1sc2nc3c(cc2c1N)CCCCCC3	0.065% (inactive)
CCOC(=O)c1sc(-c2ccc(F)cc2)cc1NC(=O)Nc1ccccc1OC	0.169% (inactive)
Cc1cc(C(=O)Nc2ccc(Cl)c(S(=O)(=O)N3CCOCC3)c2)c2ccccc2n1	-0.053% (inactive)
Cc1ccc(S(=O)(=O)N2CCN(C(=O)COC(=O)c3ccccc3OC(F)F)CC2)c(C)c1	-0.006% (inactive)
Nc1nc(C2CCOCC2)cs1	-0.032% (inactive)
CCc1ccccc1OCC(=O)Nc1ccc(N2CCCC2)cc1C	0.109% (inactive)
COc1ccc2c(c1)C(C)=CC(C)(C)N2S(=O)(=O)c1ccc(Br)cc1	0.373% (inactive)
COCCCn1c(C)cc(C(=O)COC(=O)CCc2nc3ccccc3c(=O)[nH]2)c1C	0.39% (inactive)
CCc1ccc(NS(=O)(=O)c2ccc3[nH]cc(C(=O)N4CCc5ccccc54)c(=O)c3c2)cc1	-0.01% (inactive)
CC(NC(=O)c1ccccc1)C(=O)N/N=C/c1ccccc1 (configuration not stated)	0.535% (inactive)
COc1ccc(CCCc2nc3ccccc3[nH]2)cc1	-0.001% (inactive)
CC(C)C(NC(=O)c1ccc(F)cc1)C(=O)NCC1CCCO1 (configuration not stated)	0.21% (inactive)
O=C(/C=C/Sc1ccc(C(F)(F)F)cn1)c1ccccc1	0.096% (inactive)
CC(O)CN(CC(C)O)c1ccc2c(c1)Cc1cc([N+](=O)[O-])ccc1-2 (configuration not stated)	11.6% (inactive)
COc1ccc(N2C(=O)C3CCCN3C2c2cccc(OC)c2)cc1 (configuration not stated)	0.02% (inactive)
CCOC(=O)Cc1csc(NC(=O)Nc2ccc(F)cc2)n1	0.472% (inactive)
CS(=O)(=O)c1ccc(S(=O)CC(=O)OCc2ccccc2)c([N+](=O)[O-])c1 (configuration not stated)	-0.127% (inactive)
COc1ccc(-c2ccc3[nH]c4c(c3c2)CCN2C(=O)[C@@H]([C@H](C)O)[C@@H](N(C)C(=O)Nc3ccc(F)cc3)C[C@@H]42)cc1	1.96% (inactive)

SMILES	activation
CCC1Oc2ccc(C)cc2N(CC(=O)N2CCCC2)C1=O (configuration not stated)	0.113% (inactive)
CC(=O)N/C(N)=N/c1nc(=O)c2ccccc2s1	-0.044% (inactive)
COc1ccccc1CN1CC[C@H]2[C@H](CO)Nc3ccc(C#Cc4ccccc4)cc3[C@H]21	0% (inactive)
CO[C@H]1CN(C)C(=O)c2ccc(NC(=O)Cc3ccccc3)cc2OC[C@@H](C)N(C)C[C@H]1C	-0.035% (inactive)
Cc1ccccc1NC(=O)c1c(C)[nH]c(=S)c(C#N)c1-c1ccc(Cl)cc1	0.075% (inactive)
C[C@H](CO)N1C[C@H](C)[C@H](CN(C)S(=O)(=O)c2ccccc2)Oc2ccc(NS(=O)(=O)c3ccc(Cl)cc3)cc2C1=O	0.163% (inactive)
CC(C)OC(=O)CC(=O)CSc1nc(-c2ccc(F)cc2)cc(-c2ccccc2)c1C#N	0.769% (inactive)
COc1ccc2c3c([nH]c2c1)[C@@H](CO)N(Cc1cc(F)ccc1F)CC31CCN(C(C)=O)CC1	-0.023% (inactive)
CC(Sc1nnc(Cc2ccccc2)o1)C(=O)Nc1ccccc1[N+](=O)[O-] (configuration not stated)	-0.032% (inactive)
COC(=O)c1cc(NS(=O)(=O)c2ccc(NC(C)=O)cc2)ccc1Cl	-0.044% (inactive)
CCOc1ccc(C(Nc2cccnc2)c2cc(Cl)c3cccnc3c2O)cc1 (configuration not stated)	8.68% (inactive)
CCN1C(=O)C(=Cc2cccc(OC)c2Oc2ccc([N+](=O)[O-])cc2[N+](=O)[O-])SC1=S	-0.008% (inactive)
CCCNC(=O)N1CC2(CN(S(C)(=O)=O)C2)c2c(n(C)c3cc(OC)ccc23)[C@H]1CO	0.016% (inactive)
Brc1cccc(CNCC2CCCO2)c1 (configuration not stated)	0.116% (inactive)
COc1cc(/C=C/c2ccc3cccc(O)c3n2)ccc1O	3.08% (inactive)
Cc1cccc(-c2ccc([C@H]3[C@H](CO)N4CCCCN(C(=O)NC(C)C)C[C@@H]34)cc2)c1	0.105% (inactive)
COc1ccc(CNC(=O)c2ccc(-c3cnn(C)c3)c3ccoc23)cc1OC	-0.037% (inactive)
COc1ccc(NC(=O)Nc2ccc3c(c2)C(=O)N([C@@H](C)CO)C[C@H](C)[C@@H](CN(C)S(=O)(=O)c2ccc(OC)cc2)O3)cc1	0.014% (inactive)
O=C(N/N=C\c1c(O)ccc2ccccc12)c1ccc(S(=O)(=O)N2CCCCC2)cc1	12.4% (inactive)
COC(=O)CCN1CCC(c2cc(-c3cccc(C(F)(F)F)c3)n[nH]2)CC1	0.056% (inactive)
